This is an account of results in patent publication US20180221329A1, “CIS- AND TRANS-SUFFRUTICOSOL D AS THERAPEUTIC AGENTS” (MIDDLE TENNESSEE STATE UNIVERSITY, priority 2015, published 2018).

Molecules are shown by their SMILES. Read-outs that look alike come from different tables or passages of the source.

In one assay the test system is A549 cells. Nature of the assay: Multi-parameter cytotoxicity assay (HCS). The format is cell-based, human. As to conditions: 24 h; for mitochondrial membrane potential: all tested concentrations. Here is the method:
FIGS. 5A-D depict multi-parameter analysis of cytotoxicity induced by cis- and trans-suffruticosol D in A549 cells. A549 cells were treated with various concentrations of cis- or trans-suffruticosol D for 24 h, then stained with three dyes simultaneously (Hoechst, cell permeability dye, and mitochondrial membrane potential dye). Cells treated with vehicle only served as a negative control and cells treated with 10 μM valinomycin served as a positive control.
Multi-parameter cytotoxicity assay. HCS analysis was used to measure nuclear morphology, cell membrane permeability, and mitochondrial membrane potential changes, the three parameters associated with cytotoxicity. A549 cells were treated with different concentrations of cis- or trans-suffruticosol D for 24 h. The cells were then fixed and stained with a warm solution containing Hoechst dye, Membrane Permeability Dye, and Mitochondrial membrane Potential Dye (Thermo Scientific, Waltham, Mass., USA). Cells were imaged using an Arrayscan VTI HCS reader (Thermo Scientific, Waltham, Mass., USA). Data on nuclear size, cell permeability, and mitochondria membrane potential were collected and analyzed using vHCS Scan software.

For assay [1], the system named is A549 (lung carcinoma) cells. Nature of the assay: Cell proliferation assay (AlamarBlue), A549. The format is cell-based, human. As to conditions: for IC50: A549, 48 h, AlamarBlue; for Selectivity: A549 versus normal HMEC cells. Here is the method: (§1) Cell culture. Four human cancer cell lines including A549 (lung carcinoma), BT20 (estrogen receptor-negative human breast adenocarcinoma), MCF-7 (estrogen receptor-positive human breast adenocarcinoma) and U2OS (human osteosarcoma) were purchased from American Type Culture Collection (ATCC). An A549 cell line that stably expresses Green Fluorescent Protein (GFP) was purchased from Cell BioLabs Inc. (San Diego, Calif., USA). A549, A549-GFP and BT20 cells were cultured in RPMI 1640 media (Sigma-Aldrich, St. Louis, Mo., USA), MCF7 cells were cultured in DMEM medium (ATCC, Manassas, Va., USA), and U20S cells were cultured in McCoy's 5A medium (ATCC, Manassas, Va., USA). As a control, HMEC cells (primary human mammary breast epithelial cells) were purchased from ATCC and cultured in McCoy's 5A medium. All medium contained 10% FBS (Sigma-Aldrich, St. Louis, Mo., USA) and 1% streptomycin and penicillin (Sigma-Aldrich, St. Louis, Mo., USA). These cells were incubated in a humid environment with 5% CO2 at 37° C.
(§2) Cell proliferation assay. The resazurin reduction reagent AlamarBlue (Invitrogen, Frederick, Md., USA) was used to evaluate the cytotoxicity of the compounds. Cells were plated at a density of 5×10^3 cells per well in 96-well microplates with 100 μl culture medium, and were allowed to attach for 16 h prior to treatment. Next, all the medium was replaced with medium containing the cis- or trans-suffruticosol D compounds at seven different concentrations: 320, 100, 32, 10, 3.2, 1.0, and 0.32 μM. The cells were placed in an incubator for 48 h at 37° C. Cells that were treated with medium-containing vehicle (1% DMSO) only serve as negative control. Subsequently, AlamarBlue solution was added to the medium and the cells were incubated in the CO2 incubator for 1 h. The fluorescent intensity change of the dye was measured at Ex 555 nm and Em 590 nm using a plate reader (Molecular Devices, Sunnyvale, Calif., USA). The cytotoxicity was examined by determining by IC50, the dose that inhibited 50% of cell growth, using GraphPad Prism software (GraphPad Software, La Jolla, Calif., USA).
(§3) Table 1. IC50 values of cis- and trans-suffruticosol D in selected cancer and normal cell lines. Cells were treated with various concentrations of cis- or trans-suffruticosol D for 48 h, and the viability of cells was evaluated with AlamarBlue dye.
A general note: Resazurin is reduced to fluorescent resorufin, in cell work by metabolically active cells.

The subject of assay [2] is A549 (lung), BT20 (breast), MCF7 (breast) and U2OS (osteosarcoma) cancer cell lines. Nature of the assay: Cell proliferation assay, range over the four cancer cell lines. The format is cell-based, human. As to conditions: for IC50: A549, BT20, MCF7, U2OS, 48 h, read-out: IC50 values in all four cancer cell lines (range); for selectivity (range over cancer cell lines): cancer cell lines versus normal HMEC. As for the experimental part:
as §1, §2

For assay [3], the system named is apoptotic proteins in A549 cells. In words: Apoptosis antibody array. As to conditions: 50 μM, 6 h. The format is cell-based, human.
The test system of assay [4] is BT20 (estrogen receptor-negative human breast adenocarcinoma) cells. In words: Cell proliferation assay (AlamarBlue), BT20. As to conditions: for IC50: BT20, 48 h, AlamarBlue; for Selectivity: BT20 versus normal HMEC cells. The format is cell-based. As for the experimental part:
as §1, §2, §3

The subject of the next assay is phosphorylated NF-κB p65. In words: Western blotting analysis of TNF-α-induced NF-κB p65 phosphorylation. The format is cell-based, human. As to conditions: 50 μM, 3 h, then 10 ng/mL TNF-α 30 min, A549. Here is the method: Western blotting analysis. A549 cells were treated with 50 μM of cis- or trans-suffruticosol D for 3 h then incubated with 10 ng/mL of TNF-α for 30 min. Cells treated with the NF-κB inhibitor Bay11-7082 (10 μM) (Sigma-Aldrich) were used as a positive control, and cells treated with vehicle only were used as a negative control. After treatment, the cells were lysed using M-PER mammalian protein extraction reagent (Pierce PERBIO, Rockford, Ill.) containing proteinase and phosphatase inhibitors (Sigma-Aldrich, USA) and centrifuged at 13,000 rpm for 5 min at 4° C. A Pierce BCA protein assay kit (Thermo Fisher Scientific, Waltham, Mass., USA) was used to determined protein concentrations. Proteins were separated on a 4-20% Tris Glycine gel (Thermo Fisher Scientific, Waltham, Mass., USA), and electrophoretically transferred to a PVDF membrane. The following primary antibodies were used: phosphorylated-NF-κB p65, NF-κB p65 (Cell Signaling Technology, Danver, Mass.) and actin (Santa Cruz Biotechnology, Dallas, Tex.). The membrane was incubated with the primary antibodies at a 1:1000 concentration at 4° C. overnight. After washing with 1×PBS 5 times, the membrane was incubated for 2 h at room temperature with HRP linked anti-rabbit IgG secondary antibodies. […]
On the technique in general: Immunoblotting shows a protein as a band on a membrane.

As usually defined, the IC50 is the concentration at which inhibition is half-maximal. For `Oc1ccc(C=Cc2c3c(cc4c2[C@@H](c2cc(O)cc(O)c2)[C@H](c2ccc(O)cc2)O4)O[C@H](c2ccc(O)cc2)[C@@H]3c2cc(O)cc(O)c2)cc1` [cis-suffruticosol D], the mitochondrial membrane potential result in the assay on A549 cells is listed as “significant decrease”. Moreover, in the assay on A549 cells (various concentrations), the cell membrane permeability result is “no significant change” and the nuclear size entry was “no significant change”. In assay [1] (listed as cis-SD), the IC50 was found to be 17.1 ± 1 µM and the Selectivity stood at 15.8. In assay [2], the IC50 was 13.4 to 46.8 µM and the “selectivity (range over cancer cell lines)” value is reported as 9.2-14.7 fold. In addition, in assay [3], the “BH3 interacting-domain death agonist (BID) expression” value is reported as “up-regulated”, the “cyclin-dependent kinase inhibitor 1B (p27Kip1) expression” value is “up-regulated” and the “death receptor 6 (DR6) expression” value was “up-regulated”. In assay [4] (listed as cis-SD), this molecule displayed an IC50 of 13.4 ± 2.5 µM and a Selectivity of 20. Also, the “expression of phosphorylated NF-κB p65 upon TNF-α stimulation” value in the assay with phosphorylated NF-κB p65 is “blocked as effectively as the blockage caused by the Bay11-7082 inhibitor control”.

With `Oc1ccc(/C=C/c2c3c(cc4c2[C@@H](c2cc(O)cc(O)c2)[C@H](c2ccc(O)cc2)O4)O[C@H](c2ccc(O)cc2)[C@@H]3c2cc(O)cc(O)c2)cc1` [trans-suffruticosol D], the cell membrane permeability result in the assay on A549 cells (100 μM) is “increased cell membrane permeability”. In the assay on A549 cells (100 μM), the nuclear size result is on record as “nuclei shrinkage”. In addition, the mitochondrial membrane potential entry in the assay on A549 cells was “significant decrease”. Further, the Selectivity in assay [1] (listed as trans-SD) is 12.3; in assay [4] (listed as trans-SD), 14.8. Besides, the IC50 in assay [1] (Homo sapiens) is 11.9 ± 1.2 µM; in assay [2], 9.93 to 20.8 µM; in assay [2] (Homo sapiens) it was 9.93 to 15.8 µM; in assay [4] (Homo sapiens, BT-20, 48 h), 9.9 ± 3.8 µM. Further, in assay [2], the “selectivity (range over cancer cell lines)” value is listed as 5.8-20 fold. The “BH3 interacting-domain death agonist (BID) expression” value in assay [3] is “up-regulated”. In addition, the “cyclin-dependent kinase inhibitor 1B (p27Kip1) expression” value in assay [3] is recorded as “up-regulated”. Further, the “death receptor 6 (DR6) expression” value in assay [3] is on record as “up-regulated”. Also, in the assay with phosphorylated NF-κB p65, the “expression of phosphorylated NF-κB p65 upon TNF-α stimulation” value was “almost completely blocked”.
